Series [1] has as its system CHO cells. The format is cell-based. To be noted: for % new chol / ug cholest. / ug new chl / 372/368: 5 uM, CHO cells; for % new chol / ug cholest. / ug new chl: duplicate samples; for 372/368: ion ratio m/z 372 to m/z 368, duplicate samples.
Series [2] deals with SLOS fibroblasts. The format is cell-based, human. The method, then: The effect of 27-hydroxy-7-dehydrocholesterol on cholesterol synthesis was studied in CHO cells (Table 2). SLOS fibroblasts were plated at a density of 375,000 cells in a T-25 flask in DMEM containing 10% fetal bovine serum. After 24 hours, the media was changed to McCoy's 5A containing 7.5% lipoprotein deficient serum and 25% D2O. To these cultures, either 5 μM of 27-hydroxycholesterol or 27-hydroxy-7-dehydrocholesterol in hydroxypropyl-β-cyclodextrin were added. Control cultures had only the vehicle added. Media was changed on day 3 and cell pellets were obtained on day 5. Newly synthesized 7-DHC was determined by a combination of GLC-FID and GLC-MS. At a medium concentration of 5 μM 27-hydroxy-7-dehydrocholesterol, the synthesis rate of 7-DHC fell to less than 2 ng/day/T-25 flask in each cell line. […] In untreated cultures, the rates of 7-DHC synthesis were 326±8 and 1414±88 ng/day/T-25 flask (mean±SD) for A2SLO and 4350SLO respectively.

Where “and” joins values, the source holds several entries; their conditions need not be identical. Identical values can stand only once. Like-named read-outs stand apart in the source and are kept apart here.

These results are taken from patent US20040121992A1, “Therapeutic methods of reducing cholesterol accumulation” (priority 2002, published 2004).

`CC(CO)CCC[C@@H](C)[C@H]1CC[C@H]2C3=CC=C4C[C@@H](O)CC[C@]4(C)[C@H]3CC[C@]12C` (stereo partly drawn) [27-hydroxy-7-dehydrocholesterol, cholesta-5,7-diene-3β-27 diol]: in series [1], the “% new chol” value was 2.6% and 2.9%; the ug cholest. is 29.5 µg and 32.6 µg; the ug new chl is 0.78 µg and 0.95 µg; the 372/368 is 0.0079 and 0.0087. In series [1] (5 μM, cell culture), the “inhibition of cholesterol synthesis compared with an equimolar amount of 27-hydroxycholesterol” value is “slightly greater”. For the same compound, the “inhibition of cholesterol synthesis (in words)” value in series [1] (cell culture assays) was “potent inhibitor of cholesterol synthesis”. The “metabolism to 27-hydroxycholesterol in SLOS fibroblasts” value in series [2] is given as “did not metabolize”. The “synthesis rate of 7-DHC” value in series [2] (medium concentration 5 μM, each cell line (A2SLO and 4350SLO), untreated 326±8 and 1414±88) is reported as “less than 2 ng/day/T-25 flask”.
For `CC(CO)CCC[C@@H](C)[C@H]1CC[C@H]2[C@@H]3CC=C4C[C@@H](O)CC[C@]4(C)[C@H]3CC[C@]12C` (stereo partly drawn) [27-hydroxycholesterol, cholest-5-ene-3 β, 27-diol, reference compound], in series [1] (listed as 27OH), the “% new chol” value is 4.4% and 3.6%; the ug cholest. was 29.9 µg and 33.1 µg; the ug new chl was 1.3 µg and 1.2 µg; the 372/368 was 0.013 and 0.011.
